Measurements published in US5283246A, “Trimetazidine compounds” (Adir et Compagnie, priority 1991, dated 1994).

Key:
human LDLs = experiment: Modification of human LDLs by copper sulphate (lipid peroxidation, MDA production); assay type: biochemical; details: copper sulphate 5×10^-6 M, 24 hours; read-out: IC50, inhibition of copper-induced modification (MDA production) of human LDLs
Description: Human LDLs are incubated for 24 hours in the presence of copper sulphate (5×10^-6 M) and in the absence or presence of the compounds tested (10^-7 M to 10^-4 M). After incubation, the peroxidation of the LDLs is evaluated by electrophoresis on agar gel and by the formation of one of the products of lipid peroxidation malonic dialdehyde (MDA), (Parthasarathy S., Young S. G., Witztum J. L., Pittman R. C. and Steinberg, D.; J. Clin. invest. 77; 641-644, 1986).
The activity of the tested compounds is evaluated by calculating those concentrations (IC50) that reduce the production of MDA by 50% compared with control experiments in the absence of the tested compound.

rat aorta = experiment: Study on isolated vessels: vascular relaxing effect on a rat aorta contracted by potassium (80 mM); set-up: species or system Wistar rat; details: rat aorta rings without endothelium contracted by potassium (80 mM)
Description: The thoracic aorta of Wistar rats (325-375 g) that have been anaesthetized by the intraperitoneal route with sodium pentobarbital (30 mg/kg) is removed and dissected into rings 3 mm in length; the endothelium is removed by gentle abrasion using a piece of wood. Each ring is connected to a Statham pressure sensor (UC2-Gould). The initial pressure applied is 2.5 g. The physiological solution used, maintained at 37° C., has the following composition (mM): NaCl 112; KCl 5; KH2 PO4 1; MgSO4 1.2; CaCl2 2.5; NaHCO3 25; glucose 11.; EDTA 0.026. After a stabilization period of 90 minutes, the aorta rings are subjected to a hyperpotassic medium (80 MM KCl and 37 mM NaCl). When the contraction is stable, cumulative concentrations of compound are added to the medium every 15 minutes. The relaxation values obtained enable calculation of the IC50.

isolated hearts of rats = experiment: Hypoxia reoxygenation on the isolated heart of a rat; set-up: species or system Wistar rat
Description: The hearts of male Wistar rats (325-375 g--Charles River breed) anaesthetized by the intraperitoneal route with sodium pentobarbital (30 mg/kg) are removed after the injection of heparin i.v. (1 ml/kg) and rapidly perfused by the Langendorff technique at a constant pressure of 76 mmhg and stimulated electrically at 5 Hz. The isovolumetric contractions are recorded by way of a small polyethylene balloon connected to a pressure sensor (P23-Gould) introduced into the left ventricle and inflated so as to obtain a diastolic pressure of approximately 10 mmhg. The physiological solution used, maintained at 37° C., has the following composition (mM): NaCl 118; KCl 4.7; KH2 PO4 1.2; MgCl2 1.2; CaCl2 1.3; NaHCO3 25; glucose 8, pH 7.4/95% O2 +5% CO2.
After a period of stabilization of from 15 to 30 minutes, the heart is subjected to hypoxia for 60 minutes (effected with 95% N2 and 5% CO2; PO2 <40 mmHg), followed by reoxygenation for 30 minutes; the compound is added to the incubation medium 15 minutes before and during the period of hypoxia.

cardiac cells = experiment: Oxidative necrosis of cardiac cells induced by hypoxanthine/xanthine-oxidase (XO + HX); assay type: cell-based, rat (newborn); details: Rattus norvegicus, 4 h
Description: The cardiac cells of newborn rats are used between the 5th and 6th days after placing in culture. Oxidative necrosis is induced by the free radical-producing enzymatic system hypoxanthine (HX, 1 -mm) and xanthineoxidase (XO, 10 mU/ml). The necrosis is evaluated 4 hours after the addition of XO/HX by measuring by spectrophotometry the cytosolic α-hydroxybutyrate dehydrogenase (a-HBDH) activity liberated in the supernatant. The cells are treated with the test compounds 16 hours and 1 hour before the beginning of the experiment after renewing the medium. At the beginning of the experiment, the treatment is carried out again one last time.
Table 3 lists the necrosis indices of cardiac cells induced by the hypoxanthine/xanthine-oxidase system alone or in the presence of increasing concentrations of the compounds of the invention.

pigs = experiment: Myocardial ischaemia induced by coronary stenosis in pigs; assay type: in vivo, Large White pig
Description: The study is carried out on "Large White" pigs of both sexes aged 3 months and weighing 21 to 26 kg. The animals are tranquillized using midazolam (I mg/kg i.m.), then anaesthetized with sodium thiopental (8 mg/kg i.v.). The anaesthesia is maintained by a perfusion of 6 to 8 mg/kg/h. They are immediately intubated and ventilated with a mixture of air+O2. A "T" thoracotomy is carried out by longitudinal section of the sternum and incision between the 4th and 5th rib. The heart is suspended in a pericardial cradle made by cutting and fixing the pericardium at four points to the thoracic muscles. An electromagnetic flow ring is placed around the anterior interventricular branch of the left coronary, and a small pneumatic balloon is placed immediately downstream of that ring. This assembly is for the purpose of effecting coronary stenosis by controlling the flow. Piezoelectric crystals connected to a Triton sonomicrometer are implanted in the lower endocardium of the left ventricular wall according to a circumferential plane perpendicular to the cardiac axis. These crystals are for recording the regional myocardial contractility and endocardial ECGs in the area supplied by the stenosed coronary artery. Epicardial ECGs are also recorded in those areas by means of electrodes fixed to the myocardium. Myocardial ischaemia is effected by inflating the small balloon which induces a reduction in flow of 50 to 60 Two identical 3 minute stenoses with reproducible and reversible effects are carried out, separated by a recovery period of 55 minutes. The treatment is administered by five minutes' perfusion by the venous route 10 minutes before the stenosis perfusion of solvent before first stenosis perfusion of the compound or solvent before the second stenosis. The regional myocardial contractility is determined by the fraction of systolic shortening of the segment lengths comprised between the piezoelectric crystals. The hypokinesis in the ischaemic zone is expressed as a percentage variation in relation to the contractility measured in the control period. The modification of the epicardial and endocardial ECGs in the ischaemic zone consists in a superelevation of the segment S.T. measured in millivolts (mV).

[1] = 1 mg/kg intravenous before second stenosis, compared with first stenosis

IC50 (human LDLs): 0.03 µM
IC50 (rat aorta): 2 µM
SMILES: COc1ccc(CN2CCN(CCCCCOc3cc(C)c(O)c(C)c3C)CC2)c(OC)c1OC [Example 10, 4-(2,3,4-trimethoxybenzyl)-l-[5-(4-hydroxy-2,3,5-trimethylphenoxy)pentyl]piperazine]
functional recovery of the hearts during reoxygenation (isolated hearts of rats; Example 1 at 3×10^-7 M, 10 at 10^-7 M, 13 at 7×10^-7 M, 40% in the control experiments): more than 70%
reduction of the developing contracture at the end of 30 minutes reoxygenation (isolated hearts of rats; end of 30 min reoxygenation, Example 1 at 3×10^-7 M, 10 at 10^-7 M, 13 at 7×10^-7 M, vs control): more than 70%
Contracture, hypoxia 10 min (isolated hearts of rats; hypoxia 10 min, Example 1 at 3 × 10^-7 M, Example 10 at 10^-7 M, Example 13 at 7 × 10^-7 M, control 23.7 ± 6.8): 15.3 ± 3.7 mm Hg
Contracture, hypoxia 30 min (isolated hearts of rats; hypoxia 30 min, Example 1 at 3 × 10^-7 M, Example 10 at 10^-7 M, Example 13 at 7 × 10^-7 M, control 33.7 ± 8.9): 16.0 ± 6.4 mm Hg
Contracture, hypoxia 60 min (isolated hearts of rats; hypoxia 60 min, Example 1 at 3 × 10^-7 M, Example 10 at 10^-7 M, Example 13 at 7 × 10^-7 M, control 32.3 ± 7.4): 14.7 ± 4.4 mm Hg
Contracture, reoxygenation 15 min (isolated hearts of rats; reoxygenation 15 min, Example 1 at 3 × 10^-7 M, Example 10 at 10^-7 M, Example 13 at 7 × 10^-7 M, control 20.6 ± 7.8): 7.3 ± 5.5 mm Hg
Contracture, reoxygenation 30 min (isolated hearts of rats; reoxygenation 30 min, Example 1 at 3 × 10^-7 M, Example 10 at 10^-7 M, Example 13 at 7 × 10^-7 M, control 12.3 ± 6.1): 2.7 ± 2.7 mm Hg
activity at 10 µM (cardiac cells; 10^-5 M, XO + HX, control XO + HX = 100.0, read-out: necrosis index of cardiac cells, XO + HX, compound 10^-5 M): 12.6 ± 1.3%
activity at 1 µM (cardiac cells; 10^-6 M, XO + HX, control XO + HX = 100.0, read-out: necrosis index of cardiac cells, XO + HX, compound 10^-6 M): 18.8 ± 3.7%
activity at 0.1 µM (cardiac cells; 10^-7 M, XO + HX, control XO + HX = 100.0, read-out: necrosis index of cardiac cells, XO + HX, compound 10^-7 M): 88.8 ± 0.4%
minimal effective concentration (cardiac cells; XO + HX induced oxidative necrosis, read-out: concentration at which compounds prove to be protective against necrosis): ≥ 0.1 µM
ST superelevation, endocardial ECG, second stenosis (ST2) (pigs; 1 mg/kg i.v. before second stenosis, ST1 (solvent) of same group 3.4 ± 0.4, control ST2 2.4 ± 0.51): 1.9 ± 0.5 mV
ST superelevation, epicardial ECG, second stenosis (ST2) (pigs; 1 mg/kg i.v. before second stenosis, ST1 (solvent) of same group 4.6 ± 1.0, control ST2 3.16 ± 1.2): 2.5 ± 0.6 mV
% residual myocardial contractility, second stenosis (ST2) (pigs; 1 mg/kg i.v. before second stenosis, ST1 (solvent) of same group 20.4 ± 3.3, control ST2 25.2 ± 3.0): 29.4 ± 2.6%
improvement in the regional contractility in the ischaemic zone (pigs; [1]): 50%
reduction of the superelevation of the segment ST, endocardial electrocardiogram (pigs; [1]): 45%
reduction of the superelevation of the segment ST, epicardial electrocardiogram (pigs; [1]): 45%
